Experimental data as given in article PMC9966268, “Genotoxicity of Novel Pyrazolo[4,3-e]tetrazolo[1,5-b][1,2,4]triazine Sulfonamides in Normal and Cancer Cells In Vitro” (International Journal of Molecular Sciences, 2023).

Experiments:
PC-3 [1] = experiment: Neutral comet assay; format: cell-based, human; conditions: 24 h
Procedure: (§1) The majority of the neutral comet assay steps were performed analogously to the alkaline version except for the electrophoresis step. In contrast to the alkaline comet assay, electrophoresis was performed in a buffer comprising 100 mM TRIS and 300 mM sodium acetate with the pH of the solution adjusted to 9.0 by glacial acetic acid, as described previously by Bukowski et al.. Electrophoresis was run at 12 V, 50 mA for 60 min. Cells were washed with distilled water twice, stained with DAPI, and analyzed as described for the alkaline comet assay.
(§2) […] This parameter provides a very clear picture of what the actual appearance of the comets was like. […] The data were presented with an interquartile range and minimal and maximal values using Graphpad Prism 7. Statistical analysis of comet assay results was performed using Statistica software. The Kruskal–Wallis test was used to show a statistically significant difference between groups. Multiple comparisons using mean ranks for all groups module of Statistica software were used. A p-value less than 0.05 was considered statistically significant. In all groups, N > 200.

BxPC-3 [2] = experiment: Trypan blue staining; format: cell-based, human; conditions: BxPC-3, 0.5, 1 and 2 × IC50, 24 h, 37 °C
Procedure: (§3) Trypan blue is a diazo dye that has been used for viability assessment for years. Viable cells with undamaged cellular membranes are resistant to staining and thus allow the discrimination from blue-stained dead cells with disrupted membranes. Cells were seeded at a density of 1.5 × 10^5/mL onto 12-well plates. […] Cells were left for incubation for another 24 h (37 °C; 5% CO2). After exposure, they were transferred to Eppendorf tubes and centrifuged at 1400 rpm for 10 min at 4 °C. Afterward, the supernatant was removed, and the precipitate was diluted in PBS. Cell suspensions were mixed with 0.4% trypan blue solution in a 1:1 ratio. Approximately 300 cells were counted under a light microscope. The experiment was repeated three times. The results were represented as mean viability (%) with SD values.

WI-38 [3] = experiment: Trypan blue staining; format: cell-based, human; conditions: WI-38, 0.5, 1 and 2 × IC50, 24 h, 37 °C
Procedure: as §3

PC-3 [4] = experiment: Trypan blue staining; format: cell-based, human; conditions: PC-3, 0.5, 1 and 2 × IC50, 24 h, 37 °C
Procedure: as §3

BxPC-3 [5] = experiment: Neutral comet assay; format: cell-based, human; conditions: 24 h
Procedure: as §1
CASP: Comet Assay Software Project Lab (http://casplab.com (accessed on 1 January 2023)) was used to establish the median value of DNA (%) in comet tails. This parameter provides a very clear picture of what the actual appearance of the comets was like. […] The data were presented with an interquartile range and minimal and maximal values using Graphpad Prism 7. Statistical analysis of comet assay results was performed using Statistica software. The Kruskal–Wallis test was used to show a statistically significant difference between groups. Multiple comparisons using mean ranks for all groups module of Statistica software were used. A p-value less than 0.05 was considered statistically significant. In all groups, N > 200.

BxPC-3 [6] = system: BxPC-3; set-up: method as in PMID 35682571; conditions: BxPC-3, 72 h incubation, MTT assay, mean; read-out: IC50 Value ± SD; cited from earlier work
BxPC-3 [7] = experiment: Alkaline comet assay; format: cell-based, human; conditions: BxPC-3, alkaline, 24 h
Procedure: (§4) The alkaline version of the comet assay was performed according to Singh et al. (1988), with modifications. BxPC-3 and PC-3 cancer cells and normal human fibroblasts (WI-38) were seeded at a density of 1.2 × 10^5/mL onto 12-well plates. […] The experimental design included negative controls (cells treated with DMSO at 0.4% for 24 h at 37 °C). Cells were left for incubation for another 24 h (37 °C; 5% CO2). After exposure, they were transferred to Eppendorf tubes and centrifuged at 1400 rpm for 10 min at 4 °C. Afterward, the supernatant was removed, and the precipitate was diluted in PBS. The next steps were performed as previously described by Kontek and Nowicka.
(§5) After electrophoresis (conditions: 12 V, 300 mA, 25 min), slides were stained with 1 µg/mL of the intercalating agent 4′,6-diamidino-2-phenylindole (DAPI) and coverslipped. DNA damage was assessed with a fluorescence microscope at 360 nm using CellSens (Olympus) software. A total number of approximately 50 cells per slide was chosen for further analysis.
as §2

WI-38 [8] = experiment: Alkaline comet assay; format: cell-based, human; conditions: WI-38, alkaline; for mean tail DNA % / median tail DNA %: 24 h
Procedure: as §4, §5, §2

PC-3 [9] = experiment: Alkaline comet assay; format: cell-based, human; conditions: PC-3, alkaline, 24 h
Procedure: as §4, §5, §2

PC-3 [10] = system: PC-3; set-up: method as in PMID 35682571; conditions: PC-3, 72 h incubation, MTT assay, mean; read-out: IC50 Value ± SD; cited from earlier work
Alamar blue assay = format: cell-based; conditions: human
Procedure: Alamar blue works as a non-toxic and membrane-permeable redox indicator that is often used to assess the metabolic activity of cells. Over the past 50 years, the alamar blue reagent has been used to measure cell viability and cytotoxicity in a variety of cell types. In this study, alamar blue (BioRAD) was used to assess cell viability before the performance of the neutral comet assay. Nunc microtiter, flat-bottomed 96-well plates were seeded at a density of approximately 1 × 10^4 cells per 100 µL medium per well. Following the given incubation period in controlled conditions (37 °C; 5% CO2), cells were exposed to 11 different concentrations of tested compounds in DMSO (range 0.05–3 µM) in a volume of 100 µL medium per well. The final solvent concentration was <0.5% v/v. The experimental design included negative controls and blanks (wells without cells).
Following a 24 h incubation period, 20 µL of alamar blue was added to each well of the experimental plate. Cells were incubated in a humidified atmosphere for 4 h (37 °C; 5% CO2). The absorbance reading was performed at 570 and 600 nm using a spectrophotometer (microplate reader Power Wave XS BioTek Instruments, Inc., USA). The experiments were performed in triplicate.
The percentage difference between treated and control cells was calculated using the formula provided by the producer (BioRad). (1) Percentage difference between treated and control cells=O2×A1 −O1×A2 /O2×P1−O1×P2×100

PC-3 [11] = experiment: γH2AX staining; format: cell-based, human; conditions: PC-3, IC50 concentration, 24 h, foci per cell
Procedure: PC-3 cells were seeded at a density of 3 × 10^4/mL onto round coverslips placed on the bottom of 12-well plates. […] After 24 h, cells were washed once with cold PBS and placed in 4% paraformaldehyde (PHA) in PBS for 10 min. at room temperature. After that, PHA was removed, and cells were permeabilized using 0.1% Triton X-100 for 10 min at 20 °C, followed by incubation in a blocking solution (1 mL/well) containing 2.5% BSA, 1.5% goat serum, and 0.1% Triton X-100 in PBS for 10 min at room temperature. The blocking solution was removed, and coverslips containing cells were incubated with anti-γ-H2AX primary antibodies in blocking solution (anti-gamma-H2AX (phosphor-Ser139) (Abcam, Cambridge, UK; 1:100)) for 1 h at room temperature. Cells were transferred into 12-well plates, washed twice in PBS (5 min each), transferred to plates, and incubated with Goat anti-Mouse IgG Cross-adsorbed antibody, Alexa Fluor 488 (Invitrogen; 1:500 in PBS) for 1 h at room temperature. Cells were washed twice in PBS, followed by incubation with DAPI solution (1 µg/mL) for 10 min at room temperature and two washes in PBS and distilled water. Coverslips were removed using tweezers and placed on microscope slides with a drop of Fluoromount-G mounting medium. The slides were placed flat at room temperature for 24 h and then stored at 4 °C. The slides were analyzed with a fluorescence microscope using CellSens (Olympus) software. A total number of approximately 100 cells per slide was chosen for further analysis. The experiment was performed in duplicate. In BxPC-3 cells, inefficient or non-specific staining was observed despite attempts to optimize the assay. Therefore, we discontinued further work on these cells with the assay.
Images for green γ-H2AX (Alexa Fluor 488) and blue nuclear signals (DAPI) were taken using an Olympus camera. ImageJ software “find maxima” and “count” functions were used to determine the number of γ-H2AX foci in each cell. The “preview point selection” option and “prominence” were chosen based on the accuracy of coverage of γ-H2AX foci. Data were analyzed using GraphPad Prism 7.0 software system (GraphPad Prism Software Inc., USA) and Statistica software. The Kruskal–Wallis test was used to show a statistically significant difference between groups. Multiple comparisons using mean ranks for all groups module of Statistica software were used. A p-value less than 0.05 was considered statistically significant (p < 0.05). In all groups, N > 200.

WI-38 [12] = system: WI-38; set-up: method as in PMID 35682571; conditions: WI-38 (head prints WI-28), 72 h incubation, MTT assay, mean; read-out: IC50 Value ± SD; cited from earlier work
[13] = system: BxPC-3 and PC-3 cancer cell lines; set-up: method as in PMID 35682571; conditions: BxPC-3 and PC-3, 72 h MTT assay; read-out: IC50 (range over cancer cell lines); cited from earlier work
[14] = PC-3, neutral, positive control 20 µM
[15] = BxPC-3, neutral, positive control 20 µM

Compound	mean tail DNA % (double-strand breaks) (PC-3 [1]; human) [%]	median tail DNA % (double-strand breaks) (PC-3 [1]; human) [%]	mean tail DNA % (double-strand breaks) (BxPC-3 [5]; human) [%]	median tail DNA % (double-strand breaks) (BxPC-3 [5]; human) [%]	IC50 (BxPC-3 [6]) [nM]	mean tail DNA % (BxPC-3 [7]; IC50 concentration) [%]	median tail DNA % (BxPC-3 [7]; IC50 concentration) [%]	mean tail DNA % (WI-38 [8]; IC50 concentration) [%]	median tail DNA % (WI-38 [8]; IC50 concentration) [%]	mean tail DNA % (PC-3 [9]; IC50 concentration) [%]	median tail DNA % (PC-3 [9]; IC50 concentration) [%]	IC50 (PC-3 [10]) [nM]	viability at 24 h, 3 µM (Alamar blue assay; PC-3 cells, PC-3, 3 µM) [%]	mean number of γH2AX foci (PC-3 [11])	median number of γH2AX foci (PC-3 [11])	IC50 (WI-38 [12]) [nM]	other results
Cc1nn(-c2ccc(S(=O)(=O)NCCN3CCOCC3)cc2)c2nn3nnnc3nc12 [MM134]	5.72	4.09	5.11	4.21	320 ± 100	10.9	2.5	4.19	1.5	7.37	1.03	160 ± 20	55.8 ± 5.27	25.8	21		cell viability (BxPC-3 [2]): highest reduction in cell viability; cell viability (WI-38 [3]): highest reduction in cell viability; cell viability (PC-3 [4]): highest reduction in cell viability; DNA damage compared with negative and positive control (in words) (WI-38 [8]; 0.5 × IC50, IC50, 2 × IC50, 24 h, p < 0.05): statistically significant increase in DNA damage
Cc1nn(-c2ccc(S(=O)(=O)N3CCOCC3)cc2)c2nn3nnnc3nc12 [MM136]	8	4.6	5.08	4.10	250 ± 80	14.36	8.28	0.72	0.01	12.08	1.63	130 ± 10		14.71	11	480 ± 90	
Cc1nn(-c2ccc(S(=O)(=O)N3CCN(C)CC3)cc2)c2nn3nnnc3nc12 [MM137]	4.45	2.82			160 ± 40	12.07	3.28	1.26	0.09	11.05	2.32	110 ± 7		17.52	15	270 ± 40	
Cc1nn(-c2ccc(S(=O)(=O)N3CCCCC3)cc2)c2nn3nnnc3nc12 [MM139]	6.07	5	4.86	3.72	330 ± 140	10.85	4.74	2.97	0.085	14.22	3.35	170 ± 3	88.4 ± 1.72	15.37	12	540	IC50 [13]: 170 to 330 nM; viability at 24 h, 3 µM (Alamar blue assay; BxPC-3 cells, BxPC-3, 3 µM): 75.3 ± 0.99%
bleomycin [reference compound]																	mean tail DNA % (double-strand breaks) (PC-3 [1]; [14]): 12.9%; median tail DNA % (double-strand breaks) (PC-3 [1]; [14]): 10.4%; mean tail DNA % (double-strand breaks) (BxPC-3 [5]; [15]): 11.15%; median tail DNA % (double-strand breaks) (BxPC-3 [5]; [15]): 9.7%; mean tail DNA % (BxPC-3 [7]; positive control 20 µM): 48.3%; median tail DNA % (BxPC-3 [7]; positive control 20 µM): 50.8%; mean tail DNA % (WI-38 [8]; positive control 20 µM): 32.6%; median tail DNA % (WI-38 [8]; positive control 20 µM): 29.13%; mean tail DNA % (PC-3 [9]; positive control 20 µM): 22.07%; median tail DNA % (PC-3 [9]; positive control 20 µM): 19.31%
